Results reported in ChEMBL document CHEMBL1137856, “The pharmacophore hypotheses of I(Kr) potassium channel blockers: novel class III antiarrhythmic agents” (Bioorg Med Chem Lett, 2004).

Target: Voltage-gated inwardly rectifying potassium channel KCNH2 (Homo sapiens, UniProt Q12809)
Assay: Inhibitory concentration against IKr potassium channel

Voltage-gated inwardly rectifying potassium channel KCNH2, sequence (Q12809 whole entry): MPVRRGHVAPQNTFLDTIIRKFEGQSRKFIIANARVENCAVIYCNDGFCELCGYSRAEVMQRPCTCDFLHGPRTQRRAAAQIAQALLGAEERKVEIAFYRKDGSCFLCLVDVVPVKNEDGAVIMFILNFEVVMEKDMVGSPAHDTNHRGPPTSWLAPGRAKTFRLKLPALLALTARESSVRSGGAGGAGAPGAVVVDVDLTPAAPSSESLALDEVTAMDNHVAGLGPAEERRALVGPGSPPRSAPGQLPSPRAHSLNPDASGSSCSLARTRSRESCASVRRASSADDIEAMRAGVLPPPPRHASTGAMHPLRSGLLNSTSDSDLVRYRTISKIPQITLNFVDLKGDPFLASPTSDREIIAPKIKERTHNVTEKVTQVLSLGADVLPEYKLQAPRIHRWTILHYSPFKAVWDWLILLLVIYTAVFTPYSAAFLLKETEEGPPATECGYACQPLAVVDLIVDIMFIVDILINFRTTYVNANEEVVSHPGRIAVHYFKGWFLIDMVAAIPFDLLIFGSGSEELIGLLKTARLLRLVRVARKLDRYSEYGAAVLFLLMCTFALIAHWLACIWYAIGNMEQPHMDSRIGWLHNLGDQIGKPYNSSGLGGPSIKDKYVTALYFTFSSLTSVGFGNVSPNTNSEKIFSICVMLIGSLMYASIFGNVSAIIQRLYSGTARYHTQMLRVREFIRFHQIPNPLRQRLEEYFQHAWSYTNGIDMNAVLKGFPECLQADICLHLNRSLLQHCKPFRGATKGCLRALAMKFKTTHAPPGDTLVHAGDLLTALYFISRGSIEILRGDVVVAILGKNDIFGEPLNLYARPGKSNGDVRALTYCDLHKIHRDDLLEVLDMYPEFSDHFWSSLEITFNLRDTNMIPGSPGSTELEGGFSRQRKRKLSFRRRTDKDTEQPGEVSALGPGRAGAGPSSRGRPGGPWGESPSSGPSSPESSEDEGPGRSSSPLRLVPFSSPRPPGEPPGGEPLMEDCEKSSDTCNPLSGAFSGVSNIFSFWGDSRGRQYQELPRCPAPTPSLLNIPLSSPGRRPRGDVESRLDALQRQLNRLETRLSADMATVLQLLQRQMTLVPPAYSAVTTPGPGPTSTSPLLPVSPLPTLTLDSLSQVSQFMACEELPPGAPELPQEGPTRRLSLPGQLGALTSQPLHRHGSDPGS

Row | SMILES | IC50 [µM]
1 | COc1cc2c(cc1OC)C(Cc1ccc(O)c(Oc3ccc(C[C@@H]4c5cc(OC)c(OC)cc5CCN4C)cc3)c1)N(C)CC2 (single isomer, unassigned) [DAURICINE] | 16
2 | CCCCCCCN(CC)CCCCc1ccc([N+](=O)[O-])cc1 | 0.01
3 | NCC(O)COc1ccccc1C(=O)CCc1ccccc1 (stereo not drawn) [N-DEPROPYL-PROPAPHENONE] | 44
4 | CCCCN(CCCC)CC(O)c1cc(Cl)cc2c1-c1ccc(Cl)cc1C2=Cc1ccc(Cl)cc1 (stereo not drawn) [LUMEFANTRINE] | 8.1
5 | Nc1ccncc1 [DALFAMPRIDINE] | 4400
6 | COc1ccc(C2CCN(CC[C@H]3CCOc4ccccc43)CC2)cc1OC [TERIKALANT] | 0.03
7 | CCC1(c2ccccc2)C(=O)NC(=O)NC1=O [PHENOBARBITAL] | 3000
8 | CN1CCN(CCCCN2C(=O)CN(/N=C/c3ccc(-c4ccc(Cl)cc4)o3)C2=O)CC1 [AZIMILIDE] | 0.4
9 | CCCNCC(O)COc1ccc(O)cc1C(=O)CCc1ccccc1 (stereo not drawn) [5-HYDROXY PROPAFENONE] | 40
10 | COc1ccc(CCNCCCNC(=O)c2ccc([N+](=O)[O-])cc2)cc1OC | 0.42
11 | COc1ccc(C(=O)N2CCN(c3ccc4c(c3)CCC(=O)N4)CC2)cc1OC [VESNARINONE] | 18
12 | COc1ccc(CN(CCN(C)C)c2ccccn2)cc1 [PYRILAMINE] | 1.1
13 | CCCCc1oc2ccc(NS(C)(=O)=O)cc2c1C(=O)c1ccc(OCCCN(CCCC)CCCC)cc1 [DRONEDARONE] | 3
